Test results taken from patent US9017719B2, “Injectable drug carrier comprising layered double hydroxide” (Nanohybrid Co., Ltd., priority 2005, dated 2015).

Assay: In vivo toxicity test of LDH-MTX hybrid and MTX, intraperitoneal, death rate
Details: mouse, ip, Balb/c mice, dosed weekly for three weeks
Experimental: Like in the in vivo toxicity test of LDH of Example 2, small animal models, Balb/c mice (6-7 weeks old) were purchased and managed in cages (5 mice/cage). MTX was administered intraperitoneally to 10 mice at each concentration of 50, 75, and 100 mg/kg and the LDH-MTX hybrid synthesized in Example 3 was administered intraperitoneally to 10 mice at each concentration of 3, 6, 12.5, 25, 50, 75, and 100 mg/kg. The body weight of each mouse was measured every week for three weeks and a dosage of drug adjusted to the newly measured weight was administered. The body weights of the mice died during the test were excluded from statistical analysis. A death rate with respect to the concentration of MTX is represented by total number of mice survived in FIG. 7a and a death rate with respect to the concentration of the LDH-MTX hybrid is represented by the total number of mice survived in FIG. 7b. […] That is, the lethal dose of the LDH-MTX hybrid was equal to ⅓ of that of MTX.

Compound `CN(Cc1cnc2nc(N)nc(N)c2n1)c1ccc(C(=O)N[C@@H](CCC(=O)O)C(=O)O)cc1` [MTX, methotrexate] has an LD50 at 3 weeks of 75 mg/kg.
